The values below come from patent US12492192B2, “Crystalline form of lifitegrast, and pharmaceutical composition comprising the same” (YS LIFE SCIENCE CO. LTD., priority 2020, dated 2025).

Converted amounts (≈) assume the structure as drawn. “Also recorded” adds a separate entry of the source.

Common to all, as to type: physicochemical
The nature of data set [1]: Hygroscopicity test (DVS). As to conditions: for Moisture Absorption at 25° C./80% RH: DVS, isothermal 25° C.; for Hygroscopicity (DVS analysis, in words): 25° C., relative humidity 5-95%, EP standard 25° C., 80% RH. The protocol:
Using a DVS (dynamic vapor absorption, VTI SGA-100, TA Instruments) which is a vapor adsorption and desorption device, crystalline forms Y and S of lifitegrast obtained from the Examples and crystalline form A of lifitegrast obtained from the Comparative Example were subjected to moisture adsorption and desorption once repeatedly, respectively, at an isothermal condition of 25° C. and in a relative humidity range of 5-95% with an interval of 5% RH.

The nature of data set [2]: Solubility test in water. The note with it: for Solubility in water: stirred at room temperature; for Solubility compared with that of crystalline form A: room temperature, relative to crystalline form A. The protocol: After crystalline forms Y and S of lifitegrast obtained from the Examples and crystalline form A of lifitegrast obtained from the Comparative Example were dissolved in water, respectively, they were sufficiently stirred at room temperature to perform a solubility test.

Data set [3] is described as follows: Thermal stability test (XRPD and HPLC after storage). The note with it: 40° C./75% RH, 4 weeks, brown vial in aluminum pouch. The protocol:
50 mg of crystalline form Y and 50 mg of crystalline form S obtained from the Examples were put into brown vials, respectively, and secondary packaging was carried out in an aluminum pouch, followed by storing at 40±2° C. and 75±5% RH. After 4 weeks, each sample was taken out, X-ray powder diffraction (XRPD) analysis was performed to evaluate the stability of the crystalline form, and high performance liquid chromatography (HPLC) analysis was performed to evaluate the generation and increase of related substances.
The results of the X-ray powder diffraction (XRPD) analysis and high performance liquid chromatography (HPLC) analysis are shown in Table 5 and 6, respectively.

For the compound `CS(=O)(=O)c1cccc(C[C@H](NC(=O)c2c(Cl)cc3c(c2Cl)CCN(C(=O)c2ccc4ccoc4c2)C3)C(=O)O)c1` [Crystalline Form A, lifitegrast], the “Moisture Absorption at 25° C./80% RH” value in data set [1] is given as 1.0%. In data set [2], the Solubility in water was 32 µg/mL (≈ 52 µM).

Take `CS(=O)(=O)c1cccc(C[C@H](NC(=O)c2c(Cl)cc3c(c2Cl)CCN(C(=O)c2ccc4ccoc4c2)C3)C(=O)O)c1` [Crystalline Form S, lifitegrast]: in data set [3], the “Generation and increase of related substances (HPLC analysis)” value was “no related substance was observed; also recorded: No generation of Related”; the “Stability of the crystalline form (XRPD analysis)” value is “did not change in appearance and polymorphism; also recorded: Retention of Crystalline Form”. In data set [1], the “Hygroscopicity (DVS analysis, in words)” value is “low hygroscopicity; also recorded: lower hygroscopicity than the crystalline form A” and the “Moisture Absorption at 25° C./80% RH” value turned out to be 0.1%. In addition, in data set [2], the “Solubility compared with that of crystalline form A” value is reported as “twice or more” and the Solubility in water was determined as 64 µg/mL (≈ 104 µM).

Regarding `CS(=O)(=O)c1cccc(C[C@H](NC(=O)c2c(Cl)cc3c(c2Cl)CCN(C(=O)c2ccc4ccoc4c2)C3)C(=O)O)c1` [Crystalline Form Y, lifitegrast], in data set [3], the “Generation and increase of related substances (HPLC analysis)” value is given as “no related substance was observed; also recorded: No generation of Related”; the “Stability of the crystalline form (XRPD analysis)” value is “did not change in appearance and polymorphism; also recorded: Retention of Crystalline Form”. Moreover, in data set [1], the “Hygroscopicity (DVS analysis, in words)” value is recorded as “low hygroscopicity” and the “Moisture Absorption at 25° C./80% RH” value worked out at 2.9%. Further, in data set [2], the “Solubility compared with that of crystalline form A” value is reported as “twice or more” and the Solubility in water was found to be 67 µg/mL (≈ 109 µM).
